Test results as given in patent publication US10993938B2 (priority 2017, dated 2021).

How the values were obtained:
[1] = tested on: RSV; experiment: Virus inhibition activity assay based on cytopathic effects (neutral red), RSV; type: cell-based; settings: human respiratory syncytial virus, read-out: RSV (EC50) μM
[2] = tested on: HSV; experiment: Virus inhibition activity assay based on cytopathic effects (neutral red), HSV; type: cell-based; settings: read-out: HSV (EC50) μM
[3] = tested on: EV71; experiment: Virus inhibition activity assay based on cytopathic effects (neutral red), EV71; type: cell-based; settings: Enterovirus A, EV71, read-out: EV71 (EC50) μM
[4] = tested on: H1N1; experiment: microbe, parasite or virus in culture; type: cell-based; settings: Influenza A virus, H1N1, read-out: H1N1 (EC50) μM
[5] = tested on: H7N9; experiment: microbe, parasite or virus in culture; type: cell-based; settings: Influenza A virus, H7N9, read-out: H7N9 (EC50) μM
[6] = tested on: CoxB3; experiment: Virus inhibition activity assay based on cytopathic effects (neutral red), CoxB3; type: cell-based; settings: read-out: CoxB3 (EC50) μM
[7] = tested on: HIV; experiment: microbe, parasite or virus in culture; type: cell-based; settings: Human immunodeficiency virus 1, read-out: HIV (EC50) μM
[8] = 50% toxic concentration on cell (TC50), neutral red

COC1C(=O)N(Cc2ccccc2)c2ccc(Cl)cc2C1(O)c1ccccc1 (centres unmarked) [Example 29]
EC50 [1]: 0.05 to 5 µM | EC50 [2]: 50 to 120 µM | EC50 [3]: 5 to 50 µM | EC50 [4]: 5 to 50 µM | EC50 [5]: 0.05 to 5 µM | EC50 [6]: 0.05 to 5 µM | EC50 [7]: 0.05 to 5 µM | CC50 [8]: 50 to 100 µM
